Measurements published in ChEMBL document CHEMBL1201862, “PubChem BioAssay data set” (2004).
Calls of active or inactive are those of the source.

Tests used:
[1] = target: Beta-galactosidase (Escherichia coli, UniProt Q8VNN2); experiment: beta-galactosidase enzyme inhibitors and activators, dose response, artefact control for CCR6 antagonist project, biochemical, E. coli enzyme, set 3 (AID 504712); format: functional
[2] = target: C-C chemokine receptor type 6 (Homo sapiens, UniProt P51684); experiment: CCR6 receptor antagonists, dose response, cell-based, luminescent beta-arrestin readout (AID 504728); format: functional
[3] = target: DNA dC->dU-editing enzyme APOBEC-3G (Homo sapiens, UniProt Q9HC16); experiment: Dose Response confirmation of small molecule APOBEC3G DNA Deaminase Inhibitors via a fluorescence-based single-stranded DNA deaminase assay. [Related pubchem assays (depositor defined):AID493012, AID493028]; format: functional
[4] = cells
[5] = HEp-2 cell cytotoxicity, dose response, cytotoxicity control for RSV inhibitor project, HTS (AID 2410); format: functional; conditions: human respiratory syncytial virus
[6] = target: Cytochrome P450 2D6 (Homo sapiens, UniProt P10635); experiment: qHTS Assay for Inhibitors and Substrates of Cytochrome P450 2D6. [Related pubchem assays: 410 ]; format: ADME; conditions: read-out: Potency
[7] = M. tuberculosis H37Rv growth inhibitors, H37Rv strain (AID 1626); format: functional
[8] = tested on: Vero; experiment: host cell cytotoxicity of antiviral hits, dose response, cytotoxicity control for West Nile virus antiviral project, secondary assay (AID 1650); format: functional; conditions: Chlorocebus sabaeus
[9] = tested on: Streptococcus sp. 'group A'; experiment: growth inhibition of control SK(-) GAS strain, dose response, counter-screen for streptokinase expression inhibitor project, luminescence, kanamycin, BacTiterGlo, confirmation (AID 1900); format: functional, organism-based
[10] = target: T1, Streptokinase A (Streptococcus pyogenes serotype M1, UniProt P10520); experiment: S. pyogenes streptokinase expression inhibitors, potency, dose response, plasminogen activation absorbance, OD405 (AID 1914); format: functional, Streptococcus pyogenes M1 GAS;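 further: secreted streptokinase activity via plasminogen activation per viability signal from cell pellet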
T1 sequence (P10520 whole entry): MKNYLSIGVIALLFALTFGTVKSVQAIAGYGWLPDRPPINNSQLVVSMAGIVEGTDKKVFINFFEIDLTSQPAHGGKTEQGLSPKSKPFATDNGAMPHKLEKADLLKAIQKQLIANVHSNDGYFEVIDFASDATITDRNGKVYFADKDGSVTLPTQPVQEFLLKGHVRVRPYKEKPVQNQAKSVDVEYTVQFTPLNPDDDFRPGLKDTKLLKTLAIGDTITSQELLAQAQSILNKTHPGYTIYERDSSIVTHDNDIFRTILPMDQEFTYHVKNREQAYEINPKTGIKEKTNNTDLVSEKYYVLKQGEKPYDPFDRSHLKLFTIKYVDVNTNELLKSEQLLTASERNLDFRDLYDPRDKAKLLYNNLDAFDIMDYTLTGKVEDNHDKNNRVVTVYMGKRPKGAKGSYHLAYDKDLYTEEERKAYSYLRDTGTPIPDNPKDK

[11] = tested on: Streptococcus; experiment: Group A Streptococcus viability loss, dose response, counter-screen for streptokinase expression inhibitor project, luminescence, BacTiterGlo (AID 1915); format: functional, organism-based;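 further: potency for reduction of bacterial viability or growth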
[12] = target: X-box-binding protein 1 (Homo sapiens, UniProt P17861); format: functional, Cricetulus griseus;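 further: confirmatory dose-response counter-screen serving a CHOP assay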
[13] = target: Melanin-concentrating hormone receptor 1 (Homo sapiens, UniProt Q99705); experiment: Fluorescence-based counterscreen for antagonists of the G-protein coupled receptor 7 (GPR7): cell-based high throughput dose response assay to identify antagonists of the melanin-concentrating hormone receptor 1 (MCHR1).; format: functional
[14] = target: T2, Corticotropin-releasing factor receptor 2/Corticotropin-releasing factor-binding protein (Homo sapiens, UniProt P24387+Q13324); experiment: activators of CRF receptor 2 with binding protein – uHTS hits, confirmation (AID 602473); format: functional; conditions: read-out: EC50_Mean
T2 sequence (Q13324 whole entry): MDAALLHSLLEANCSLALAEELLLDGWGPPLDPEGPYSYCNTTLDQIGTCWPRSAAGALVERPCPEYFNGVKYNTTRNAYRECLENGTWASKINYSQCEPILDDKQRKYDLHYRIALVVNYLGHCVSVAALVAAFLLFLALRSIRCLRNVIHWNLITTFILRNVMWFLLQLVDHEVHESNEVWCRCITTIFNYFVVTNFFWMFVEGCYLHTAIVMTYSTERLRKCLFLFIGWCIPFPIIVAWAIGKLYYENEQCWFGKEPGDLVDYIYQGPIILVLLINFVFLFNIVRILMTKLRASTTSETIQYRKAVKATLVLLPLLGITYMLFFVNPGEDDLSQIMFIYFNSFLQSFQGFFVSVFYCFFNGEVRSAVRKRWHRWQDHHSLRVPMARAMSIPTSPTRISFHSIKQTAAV
T2 sequence (P24387 whole entry): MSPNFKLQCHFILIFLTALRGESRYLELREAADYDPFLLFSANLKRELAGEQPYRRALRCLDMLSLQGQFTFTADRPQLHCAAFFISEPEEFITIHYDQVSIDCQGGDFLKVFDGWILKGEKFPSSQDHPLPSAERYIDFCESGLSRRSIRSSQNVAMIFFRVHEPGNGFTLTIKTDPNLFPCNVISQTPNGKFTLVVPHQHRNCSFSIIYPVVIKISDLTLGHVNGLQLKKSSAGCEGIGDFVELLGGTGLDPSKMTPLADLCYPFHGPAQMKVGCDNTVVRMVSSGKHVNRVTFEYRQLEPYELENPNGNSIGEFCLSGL

[15] = target: Cytochrome P450 3A4 (Homo sapiens, UniProt P08684); conditions: Potency;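 further: confirmatory qHTS run detecting inhibitors and substrates of CYP3A4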
[16] = target: T3, Alkaline phosphatase, tissue-nonspecific isozyme (Homo sapiens, UniProt P05186)
T3 sequence (P05186 whole entry): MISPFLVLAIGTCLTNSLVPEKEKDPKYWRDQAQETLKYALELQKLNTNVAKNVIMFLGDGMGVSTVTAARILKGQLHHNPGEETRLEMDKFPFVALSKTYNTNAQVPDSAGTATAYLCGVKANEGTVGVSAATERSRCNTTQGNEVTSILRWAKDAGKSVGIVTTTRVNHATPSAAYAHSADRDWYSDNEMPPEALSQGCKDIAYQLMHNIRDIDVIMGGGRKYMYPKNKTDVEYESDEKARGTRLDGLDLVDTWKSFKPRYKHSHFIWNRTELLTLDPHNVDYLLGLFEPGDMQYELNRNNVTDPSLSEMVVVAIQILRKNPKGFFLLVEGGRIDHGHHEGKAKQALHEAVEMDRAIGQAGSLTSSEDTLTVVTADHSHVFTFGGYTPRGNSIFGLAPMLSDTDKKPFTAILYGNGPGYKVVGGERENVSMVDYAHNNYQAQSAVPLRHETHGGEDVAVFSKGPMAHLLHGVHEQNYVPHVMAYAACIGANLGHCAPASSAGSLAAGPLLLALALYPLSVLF

[17] = growth suppression of PTEN-null colon cells, dose response, cell-based, HCT116 PTEN knockout (AID 1047); format: functional;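 further: HCT116 colon tumor cells with PTEN knocked out; cells exposed to compound for 60 hours before readout; potency for loss of cell viability measured by luminescence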
[18] = growth suppression of beta-catenin-knockout colon cells, dose response, cell-based, HCT116, human colon tumor (AID 1045); format: functional;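 further: HCT116 colon tumor cells with beta catenin knocked out; cells exposed to compound for 60 hours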
[19] = A Cell Based Secondary Assay To Explore Cytotoxicity of Compounds that Sensitize Mycobacterium Tuberculosis to Beta-Lactam Antibiotics.; format: functional
[20] = Luminescence-based dose response cell-based high throughput screening assay for cytotoxic compounds using the IEC-6 intestinal epithelial cell line. [Related pubchem assays: 1858 (Summary AID.), 1825 (Counterscreen.), 1907 (Confirmation screen.)]; format: functional

Sequence of Cytochrome P450 2D6 (P10635 whole entry): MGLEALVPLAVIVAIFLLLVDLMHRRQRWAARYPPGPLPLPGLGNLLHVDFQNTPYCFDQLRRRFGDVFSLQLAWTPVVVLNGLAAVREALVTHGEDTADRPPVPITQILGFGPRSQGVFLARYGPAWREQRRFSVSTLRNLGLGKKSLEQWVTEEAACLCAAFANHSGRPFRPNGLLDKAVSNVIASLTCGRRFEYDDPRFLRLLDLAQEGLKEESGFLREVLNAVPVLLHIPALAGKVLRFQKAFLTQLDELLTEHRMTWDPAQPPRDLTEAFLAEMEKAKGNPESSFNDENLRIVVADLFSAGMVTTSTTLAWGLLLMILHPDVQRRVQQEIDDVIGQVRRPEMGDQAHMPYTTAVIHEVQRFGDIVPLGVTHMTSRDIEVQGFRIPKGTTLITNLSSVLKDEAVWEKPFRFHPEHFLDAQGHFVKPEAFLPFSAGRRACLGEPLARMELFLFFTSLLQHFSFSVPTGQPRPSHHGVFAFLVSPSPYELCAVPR
Sequence of Melanin-concentrating hormone receptor 1 (Q99705 whole entry): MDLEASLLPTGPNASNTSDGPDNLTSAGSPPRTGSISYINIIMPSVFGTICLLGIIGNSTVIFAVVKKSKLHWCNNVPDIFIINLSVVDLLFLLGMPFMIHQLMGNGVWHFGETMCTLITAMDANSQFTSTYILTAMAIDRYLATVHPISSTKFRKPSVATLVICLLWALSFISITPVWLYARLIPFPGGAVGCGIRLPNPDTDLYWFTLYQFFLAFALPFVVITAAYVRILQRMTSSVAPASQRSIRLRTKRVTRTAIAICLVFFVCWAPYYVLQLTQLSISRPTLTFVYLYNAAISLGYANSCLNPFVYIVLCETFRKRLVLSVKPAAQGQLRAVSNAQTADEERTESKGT
Sequence of Cytochrome P450 3A4 (P08684 whole entry): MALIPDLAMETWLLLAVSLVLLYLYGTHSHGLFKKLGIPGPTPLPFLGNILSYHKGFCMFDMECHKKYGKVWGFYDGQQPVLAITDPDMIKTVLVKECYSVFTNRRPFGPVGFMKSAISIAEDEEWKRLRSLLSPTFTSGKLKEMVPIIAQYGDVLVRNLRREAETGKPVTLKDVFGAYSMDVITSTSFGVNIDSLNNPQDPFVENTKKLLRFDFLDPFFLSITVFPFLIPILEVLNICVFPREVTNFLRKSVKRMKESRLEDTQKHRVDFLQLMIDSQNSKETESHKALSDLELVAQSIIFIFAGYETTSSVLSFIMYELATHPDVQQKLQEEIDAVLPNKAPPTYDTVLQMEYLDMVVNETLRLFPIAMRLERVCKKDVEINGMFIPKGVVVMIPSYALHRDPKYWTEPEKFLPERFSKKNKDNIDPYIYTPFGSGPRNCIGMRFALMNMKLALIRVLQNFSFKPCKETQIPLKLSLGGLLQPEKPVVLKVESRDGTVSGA
Sequence of C-C chemokine receptor type 6 (P51684 whole entry): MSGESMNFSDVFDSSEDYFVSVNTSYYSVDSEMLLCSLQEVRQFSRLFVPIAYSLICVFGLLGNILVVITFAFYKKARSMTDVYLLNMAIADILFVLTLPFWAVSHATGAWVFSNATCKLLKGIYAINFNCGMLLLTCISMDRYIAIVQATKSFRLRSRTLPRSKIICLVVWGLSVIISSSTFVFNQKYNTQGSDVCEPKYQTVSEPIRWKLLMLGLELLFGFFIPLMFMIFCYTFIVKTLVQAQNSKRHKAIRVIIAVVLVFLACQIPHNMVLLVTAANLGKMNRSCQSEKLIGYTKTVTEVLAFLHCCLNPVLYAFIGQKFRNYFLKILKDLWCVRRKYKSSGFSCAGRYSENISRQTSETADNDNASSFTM
Sequence of DNA dC->dU-editing enzyme APOBEC-3G (Q9HC16 whole entry): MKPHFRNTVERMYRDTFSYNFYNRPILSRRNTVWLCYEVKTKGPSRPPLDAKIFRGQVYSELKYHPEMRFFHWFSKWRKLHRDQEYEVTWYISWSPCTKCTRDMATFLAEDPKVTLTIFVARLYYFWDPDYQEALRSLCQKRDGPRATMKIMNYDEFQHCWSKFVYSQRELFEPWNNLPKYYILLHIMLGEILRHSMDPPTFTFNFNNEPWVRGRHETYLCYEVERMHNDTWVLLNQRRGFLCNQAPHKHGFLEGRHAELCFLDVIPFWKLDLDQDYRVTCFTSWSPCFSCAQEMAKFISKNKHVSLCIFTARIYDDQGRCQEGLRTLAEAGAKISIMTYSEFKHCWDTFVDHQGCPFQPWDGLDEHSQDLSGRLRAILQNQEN
Sequence of X-box-binding protein 1 (P17861 whole entry): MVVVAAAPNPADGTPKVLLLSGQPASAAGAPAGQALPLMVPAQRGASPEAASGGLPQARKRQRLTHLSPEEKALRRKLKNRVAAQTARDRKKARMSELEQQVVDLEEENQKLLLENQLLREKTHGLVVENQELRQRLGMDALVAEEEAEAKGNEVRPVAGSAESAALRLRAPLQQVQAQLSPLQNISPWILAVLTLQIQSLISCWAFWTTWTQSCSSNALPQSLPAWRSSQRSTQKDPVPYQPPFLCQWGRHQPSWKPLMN
Sequence of Beta-galactosidase (Q8VNN2 whole entry): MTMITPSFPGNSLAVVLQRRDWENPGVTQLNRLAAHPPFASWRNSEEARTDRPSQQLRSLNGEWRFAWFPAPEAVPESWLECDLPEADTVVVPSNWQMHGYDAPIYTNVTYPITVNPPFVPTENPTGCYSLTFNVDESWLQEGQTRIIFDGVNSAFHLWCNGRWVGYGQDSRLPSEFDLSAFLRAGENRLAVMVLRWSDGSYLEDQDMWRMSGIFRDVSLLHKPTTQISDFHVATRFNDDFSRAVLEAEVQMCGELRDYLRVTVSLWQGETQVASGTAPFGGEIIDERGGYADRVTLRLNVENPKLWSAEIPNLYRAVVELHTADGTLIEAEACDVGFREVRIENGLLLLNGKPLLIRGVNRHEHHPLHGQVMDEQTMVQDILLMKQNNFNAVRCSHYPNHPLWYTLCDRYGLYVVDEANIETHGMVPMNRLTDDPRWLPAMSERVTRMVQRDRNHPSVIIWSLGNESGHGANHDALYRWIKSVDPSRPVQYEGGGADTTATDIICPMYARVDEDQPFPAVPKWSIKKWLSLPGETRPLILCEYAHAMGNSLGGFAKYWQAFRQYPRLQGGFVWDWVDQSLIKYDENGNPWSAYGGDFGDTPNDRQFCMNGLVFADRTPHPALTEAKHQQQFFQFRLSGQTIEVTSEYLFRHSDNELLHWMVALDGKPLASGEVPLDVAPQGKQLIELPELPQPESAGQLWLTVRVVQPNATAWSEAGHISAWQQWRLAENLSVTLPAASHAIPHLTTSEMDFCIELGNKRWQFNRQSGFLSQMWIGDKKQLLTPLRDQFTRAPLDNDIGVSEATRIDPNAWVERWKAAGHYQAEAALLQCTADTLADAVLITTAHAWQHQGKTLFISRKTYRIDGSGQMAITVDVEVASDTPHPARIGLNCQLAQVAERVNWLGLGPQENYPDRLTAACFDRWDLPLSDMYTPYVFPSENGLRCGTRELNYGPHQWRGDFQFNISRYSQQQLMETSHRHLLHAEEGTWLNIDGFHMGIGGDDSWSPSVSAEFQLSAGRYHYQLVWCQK

Q: With `Cc1ccc(C)c2sc(NC(=O)c3nc4ccccc4s3)nc12` as the compound, how does the IC50 [1] read?
A: Its IC50 is > 66.6 µM (inactive).

Q: And the IC50 [2]?
A: Its IC50 is 0.869 µM (active).

Q: Which IC50 [3] does the source give for `CCN(CC)c1ccc(NC(=O)c2ccccc2)cc1S(=O)(=O)Nc1ccccc1OC` here?
A: The IC50 was 30 µM (active).

Q: With `Cc1nc2ccccc2nc1Nc1cccc(Cl)c1` as the compound, how does the IC50 [4] read?
A: Its IC50 is 11.7 µM (active).

Q: What about the CC50 [5] of the same compound?
A: Its CC50 is 24.1 µM (active).

Q: For `COc1ccc(NC(=O)/C=C\c2ccc(Cl)cc2)cc1`, which AC50 [6] is on record?
A: The AC50 was 25.1 µM (inconclusive).

Q: With `COc1ccc(NC(C#N)c2ccc(OC)cc2)cc1` (configuration not stated) as the compound, how does the IC50 [7] read?
A: The IC50 was > 100 µM (active).

Q: Which CC50 [8] does the source give for `Cc1ccc(C(OCC(O)CNC(C)c2ccccc2)c2ccccc2)cc1` (configuration not stated) here?
A: The CC50 was 18.9 µM (active).

Q: What does the source list for `Cc1ccc(NC(=O)c2ccc(C#CC3(O)CCCCC3)cc2)cc1C`?
A: EC50 [9]: > 150 µM (not active); EC50 [10]: 7.36 µM (inconclusive); EC50 [11]: > 150 µM (not active); Absolute IC50 (XBP1) [12]: 10 µM

Q: Which IC50 [13] does the source give for `C#CC(CO)N(CCN(Cc1ccccc1)C(C#C)CO)Cc1ccccc1` (configuration not stated) here?
A: The IC50 was 15 µM (not active).

Q: Which EC50 [14] does the source give for `Clc1ccc(-c2ccc(/C=N/c3ccc(N4CCOCC4)cc3)o2)c(Cl)c1` here?
A: Its EC50 is 6.68 µM (active).

Q: And the IC50 [7]?
A: Its IC50 is > 100 µM (active).

Q: Which AC50 [6] does the source give for `O=c1cc(-c2cccc(O)c2O)oc2ccccc12` here?
A: Its AC50 is 31.6 µM (inconclusive).

Q: And the AC50 [15]?
A: Its AC50 is 20 µM (inconclusive).

Q: Which EC50 [16] does the source give for `Cn1c(=O)c2c(nc(N/N=C/c3cccs3)n2Cc2ccccc2)n(C)c1=O` here?
A: Its EC50 is > 100 µM (not active).

Q: And the EC50 [17]?
A: The EC50 was 56.2 µM (active).

Q: What about the EC50 [18] of the same compound?
A: The EC50 was 84.2 µM (active).

Q: With `O=C1N=C(N/N=C/c2ccc3ncccc3c2)SC1Cc1ccc(SC(F)F)cc1` (configuration not stated) as the compound, how does the CC50 [19] read?
A: The CC50 was > 40 µM (active).

Q: Which IC50 [20] does the source give for `C=C1[C@@H](C)[C@H]2[C@H](Cc3ccccc3)NC(=O)[C@]23OC(=O)/C=C/[C@H](O)CCC[C@@H](C)C/C=C/[C@H]3[C@@H]1O` [CYTOCHALASIN B] here?
A: Its IC50 is 0.424 µM (active).
